#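 Five compound concentrations were applied to cells in 96-well plates for 48 hours; endpoints were derived by simple linear interpolation of the resulting dose-response curve. TGI: total growth inhibition.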
# What was measured:
# Assay in all cases: inhibition of tumour cell growth, NCI panel, 48 h
# PC-3 prostate = system: PC-3 prostate
# K-562 leukemia = system: K-562 leukemia
# UO-31 renal = system: UO-31 renal
# TK-10 renal = system: TK-10 renal
# OVCAR-3 ovarian = system: OVCAR-3 ovarian
# MOLT-4 leukemia = system: MOLT-4 leukemia
# HOP-62 NSCLC = system: HOP-62 NSCLC
# HCT-15 colon = system: HCT-15 colon
# SW-620 colon = system: SW-620 colon
# SN12C renal = system: SN12C renal
# MDA-N = system: MDA-N
# NCI-H460 lung = system: NCI-H460 lung
# UACC-257 melanoma = system: UACC-257 melanoma
# U251 CNS = system: U251 CNS
# M14 melanoma = system: M14 melanoma
# HS 578T breast = system: HS 578T breast
# RPMI-8226 leukemia = system: RPMI-8226 leukemia
# CAKI-1 renal = system: CAKI-1 renal
# SF-295 CNS = system: SF-295 CNS
# KM12 colon = system: KM12 colon
# MDA-MB-435 = system: MDA-MB-435
# MALME-3M melanoma = system: MALME-3M melanoma
# 786-0 renal = system: 786-0 renal
# A498 renal = system: A498 renal
# SK-MEL-5 melanoma = system: SK-MEL-5 melanoma
# COLO 205 colon = system: COLO 205 colon
# SK-OV-3 ovarian = system: SK-OV-3 ovarian
# OVCAR-4 ovarian = system: OVCAR-4 ovarian
# OVCAR-8 ovarian = system: OVCAR-8 ovarian
# RXF 393 renal = system: RXF 393 renal
# IGROV1 ovarian = system: IGROV1 ovarian
# OVCAR-5 ovarian = system: OVCAR-5 ovarian
# SK-MEL-2 melanoma = system: SK-MEL-2 melanoma
# A549 NSCLC = system: A549 NSCLC
# ACHN renal = system: ACHN renal
# LOX IMVI melanoma = system: LOX IMVI melanoma
# SF-539 CNS = system: SF-539 CNS
# NCI/ADR-RES ovarian = system: NCI/ADR-RES ovarian
# DU-145 prostate = system: DU-145 prostate
# SNB-75 CNS = system: SNB-75 CNS
# NCI-H226 lung = system: NCI-H226 lung
# NCI-H23 lung = system: NCI-H23 lung
# CCRF-CEM leukemia = system: CCRF-CEM leukemia
# HCC-2998 colon = system: HCC-2998 colon
# BT-549 breast = system: BT-549 breast
# UACC-62 melanoma = system: UACC-62 melanoma
# EKVX NSCLC = system: EKVX NSCLC
# HL-60(TB) leukemia = system: HL-60(TB) leukemia
# SF-268 CNS = system: SF-268 CNS
# MDA-MB-231 breast = system: MDA-MB-231 breast
# MCF7 breast = system: MCF7 breast
# NCI-H522 lung = system: NCI-H522 lung
# T-47D breast = system: T-47D breast
# HCT-116 colon = system: HCT-116 colon
# SK-MEL-28 melanoma = system: SK-MEL-28 melanoma
# HOP-92 NSCLC = system: HOP-92 NSCLC
# SR leukemia = system: SR leukemia
# SNB-19 CNS = system: SNB-19 CNS
# HT29 colon = system: HT29 colon
smiles,measurement,setting,value
CNC(=S)c1nnsc1N,TGI,PC-3 prostate,> 100 µM
same,TGI,K-562 leukemia,> 100 µM
same,TGI,UO-31 renal,> 100 µM
same,TGI,TK-10 renal,> 100 µM
same,TGI,OVCAR-3 ovarian,> 100 µM
same,TGI,MOLT-4 leukemia,> 100 µM
same,TGI,HOP-62 NSCLC,> 100 µM
same,TGI,HCT-15 colon,> 100 µM
same,TGI,SW-620 colon,> 100 µM
same,TGI,SN12C renal,> 100 µM
same,TGI,MDA-N,> 100 µM
same,TGI,NCI-H460 lung,41.5 µM
same,TGI,UACC-257 melanoma,> 100 µM
same,TGI,U251 CNS,> 100 µM
same,TGI,M14 melanoma,> 100 µM
same,TGI,HS 578T breast,> 100 µM
same,TGI,RPMI-8226 leukemia,> 100 µM
same,TGI,CAKI-1 renal,> 100 µM
same,TGI,SF-295 CNS,> 100 µM
same,TGI,KM12 colon,> 100 µM
same,TGI,MDA-MB-435,> 100 µM
same,TGI,MALME-3M melanoma,> 100 µM
same,TGI,786-0 renal,> 100 µM
same,TGI,A498 renal,> 100 µM
same,TGI,SK-MEL-5 melanoma,> 100 µM
same,TGI,COLO 205 colon,> 100 µM
same,TGI,SK-OV-3 ovarian,> 100 µM
same,TGI,OVCAR-4 ovarian,> 100 µM
same,TGI,OVCAR-8 ovarian,> 100 µM
same,TGI,RXF 393 renal,> 100 µM
same,TGI,IGROV1 ovarian,> 100 µM
same,TGI,OVCAR-5 ovarian,> 100 µM
same,TGI,SK-MEL-2 melanoma,> 100 µM
same,TGI,A549 NSCLC,> 100 µM
same,TGI,ACHN renal,> 100 µM
same,TGI,LOX IMVI melanoma,> 100 µM
same,TGI,SF-539 CNS,> 100 µM
same,TGI,NCI/ADR-RES ovarian,> 100 µM
same,TGI,DU-145 prostate,> 100 µM
same,TGI,SNB-75 CNS,> 100 µM
same,TGI,NCI-H226 lung,> 100 µM
same,TGI,NCI-H23 lung,> 100 µM
same,TGI,CCRF-CEM leukemia,> 100 µM
same,TGI,HCC-2998 colon,> 100 µM
same,TGI,BT-549 breast,> 100 µM
same,TGI,UACC-62 melanoma,> 100 µM
same,TGI,EKVX NSCLC,> 100 µM
same,TGI,HL-60(TB) leukemia,0.0686 µM
same,TGI,SF-268 CNS,> 100 µM
same,TGI,MDA-MB-231 breast,> 100 µM
same,TGI,MCF7 breast,> 100 µM
same,TGI,NCI-H522 lung,> 100 µM
same,TGI,T-47D breast,> 100 µM
same,TGI,HCT-116 colon,> 100 µM
same,TGI,SK-MEL-28 melanoma,> 100 µM
CN(C)CCNc1nc2c(c(=O)n(C)c(=O)n2C)n1C,TGI,K-562 leukemia,> 100 µM
same,TGI,HOP-92 NSCLC,> 100 µM
same,TGI,UO-31 renal,> 100 µM
same,TGI,TK-10 renal,> 100 µM
same,TGI,OVCAR-3 ovarian,> 100 µM
same,TGI,MOLT-4 leukemia,> 100 µM
same,TGI,HOP-62 NSCLC,> 100 µM
same,TGI,HCT-15 colon,> 100 µM
same,TGI,SW-620 colon,> 100 µM
same,TGI,SN12C renal,> 100 µM
same,TGI,MDA-N,> 100 µM
same,TGI,NCI-H460 lung,> 100 µM
same,TGI,UACC-257 melanoma,> 100 µM
same,TGI,U251 CNS,> 100 µM
same,TGI,M14 melanoma,> 100 µM
same,TGI,HS 578T breast,> 100 µM
same,TGI,RPMI-8226 leukemia,> 100 µM
same,TGI,CAKI-1 renal,> 100 µM
same,TGI,SR leukemia,> 100 µM
same,TGI,SF-295 CNS,> 100 µM
same,TGI,KM12 colon,> 100 µM
same,TGI,MDA-MB-435,> 100 µM
same,TGI,MALME-3M melanoma,> 100 µM
same,TGI,786-0 renal,> 100 µM
same,TGI,A498 renal,> 100 µM
same,TGI,SK-MEL-5 melanoma,> 100 µM
same,TGI,SNB-19 CNS,> 100 µM
same,TGI,COLO 205 colon,> 100 µM
same,TGI,SK-OV-3 ovarian,> 100 µM
same,TGI,OVCAR-4 ovarian,> 100 µM
same,TGI,OVCAR-8 ovarian,> 100 µM
same,TGI,RXF 393 renal,> 100 µM
same,TGI,IGROV1 ovarian,> 100 µM
same,TGI,OVCAR-5 ovarian,> 100 µM
same,TGI,A549 NSCLC,> 100 µM
same,TGI,ACHN renal,> 100 µM
same,TGI,LOX IMVI melanoma,> 100 µM
same,TGI,SF-539 CNS,> 100 µM
same,TGI,NCI/ADR-RES ovarian,> 100 µM
same,TGI,DU-145 prostate,> 100 µM
same,TGI,NCI-H226 lung,> 100 µM
same,TGI,NCI-H23 lung,> 100 µM
same,TGI,CCRF-CEM leukemia,> 100 µM
same,TGI,BT-549 breast,> 100 µM
same,TGI,UACC-62 melanoma,> 100 µM
same,TGI,EKVX NSCLC,> 100 µM
same,TGI,HL-60(TB) leukemia,> 100 µM
same,TGI,SF-268 CNS,> 100 µM
same,TGI,MDA-MB-231 breast,> 100 µM
same,TGI,MCF7 breast,> 100 µM
same,TGI,NCI-H522 lung,> 100 µM
same,TGI,T-47D breast,> 100 µM
same,TGI,HCT-116 colon,> 100 µM
same,TGI,HT29 colon,> 100 µM
same,TGI,SK-MEL-28 melanoma,> 100 µM
CC1(C)CC(=O)C(/C=N/c2nc(-c3cccc([N+](=O)[O-])c3)cs2)=C(O)C1,TGI,PC-3 prostate,> 100 µM
same,TGI,K-562 leukemia,52.6 µM
same,TGI,HOP-92 NSCLC,39.6 µM
same,TGI,UO-31 renal,74.9 µM
same,TGI,TK-10 renal,92.5 µM
same,TGI,OVCAR-3 ovarian,> 100 µM
same,TGI,MOLT-4 leukemia,> 100 µM
same,TGI,HOP-62 NSCLC,57.9 µM
same,TGI,HCT-15 colon,23.8 µM
same,TGI,SW-620 colon,25.6 µM
same,TGI,SN12C renal,37.6 µM
same,TGI,MDA-N,36.5 µM
same,TGI,NCI-H460 lung,27.8 µM
same,TGI,UACC-257 melanoma,49.7 µM
same,TGI,U251 CNS,46.4 µM
same,TGI,M14 melanoma,38.2 µM
same,TGI,HS 578T breast,62.4 µM
same,TGI,RPMI-8226 leukemia,43.9 µM
same,TGI,CAKI-1 renal,23.4 µM
same,TGI,SF-295 CNS,> 100 µM
same,TGI,KM12 colon,> 100 µM
same,TGI,MDA-MB-435,60.7 µM
same,TGI,786-0 renal,29.9 µM
same,TGI,A498 renal,30.5 µM
same,TGI,SNB-19 CNS,46.9 µM
same,TGI,COLO 205 colon,30.9 µM
same,TGI,SK-OV-3 ovarian,> 100 µM
same,TGI,OVCAR-4 ovarian,> 100 µM
same,TGI,OVCAR-8 ovarian,96.2 µM
same,TGI,RXF 393 renal,46.9 µM
same,TGI,IGROV1 ovarian,44.7 µM
same,TGI,OVCAR-5 ovarian,> 100 µM
same,TGI,SK-MEL-2 melanoma,> 100 µM
same,TGI,A549 NSCLC,> 100 µM
same,TGI,ACHN renal,33.8 µM
same,TGI,LOX IMVI melanoma,27.2 µM
same,TGI,SF-539 CNS,45.6 µM
same,TGI,NCI/ADR-RES ovarian,39.2 µM
same,TGI,DU-145 prostate,> 100 µM
same,TGI,SNB-75 CNS,59.9 µM
same,TGI,NCI-H226 lung,36.5 µM
same,TGI,NCI-H23 lung,37.3 µM
same,TGI,CCRF-CEM leukemia,5.69 µM
same,TGI,HCC-2998 colon,29.1 µM
same,TGI,BT-549 breast,54 µM
same,TGI,UACC-62 melanoma,42.2 µM
same,TGI,EKVX NSCLC,46.6 µM
same,TGI,HL-60(TB) leukemia,> 100 µM
same,TGI,SF-268 CNS,44.1 µM
same,TGI,MDA-MB-231 breast,43 µM
same,TGI,MCF7 breast,34 µM
same,TGI,NCI-H522 lung,23.7 µM
same,TGI,T-47D breast,37.3 µM
same,TGI,HCT-116 colon,28.1 µM
same,TGI,HT29 colon,30.7 µM

# From PubChem BioAssay (NCI)
